# Non-standard residues stand in square brackets, D forms with d. Residues, ends and D or L forms follow the SMILES beside them. d(hArg(Et2)) = CCN=C(NCC)NCCCC[C@@H](N)C(=O)O; hArg(Et2) = CCN=C(NCC)NCCCC[C@H](N)C(=O)O; dPhe(4-Cl) = N[C@H](Cc1ccc(Cl)cc1)C(=O)O; d2Nal = N[C@H](Cc1ccc2ccccc2c1)C(=O)O; d3Pal = N[C@H](Cc1cccnc1)C(=O)O
# How the values were obtained:
# Assay type in all cases: in vivo, human
# [1] = tested on: patient with seropositive rheumatoid arthritis; test: Treatment of RA using Ganirelix
# Experimental: • person with seropositive rheumatoid arthritis with disease duration of 10 years. • Fulfilled ACR 2010 classification criteria for rheumatoid arthritis. Experimental Treatment • Had tried almost all available rheumatoid arthritis therapies available previously without effect. • Offered experimental GnRH antagonist therapy, Ganirelix 0.75 mg sc daily (0.25 mg sc three times a day) Assessment of Response at 4 Months • Disease activity score (DAS) reduction from 5.5 to 2.2 (remission). • A DAS reduction of 0.6 units is defined as a clinical response to treatment (1). • Their ESR decreased from 28 mm to 19 mm, with a normalization of their CRP from 23 mg/L to 5 mg/L. This is supported by the decrease in their anti-cyclic citrullinated peptide (CCP) antibodies from 27 u/mL. to 14 u/mL.
# [2] = tested on: patient with tendonitis of the elbow; test: GnRH antagonist injection around tendon in tendonitis; details: 1.5 mg injected around the affected tendon, 2 week post injection
# Experimental: • person diagnosed with tendonitis of the elbow with ultrasound confirming tendonitis. Experimental Treatment • Treated with an injection of GnRH antagonist, Ganirelix 1.5 mg, around the affected tendon. Assessment of Response • Before and 2 week post injection ultrasound images are taken to show a decrease in tendonitis of the elbow.
# [3] = tested on: patient with ulcerative colitis; test: GnRH antagonist treatment for colitis (Ganirelix)
# Experimental: • person with ulcerative colitis for the past 10 years Experimental Treatment • Is offered Ganirelix 2 mg daily for 6months Assessment of Response • By 6 months they experience clinical remission with a partial Mayo score reduction from 3 to 0.
compound,measurement,setting,value
CCN=C(NCC)NCCCC[C@H](NC(=O)[C@H](CC(C)C)NC(=O)[C@@H](CCCCNC(=NCC)NCC)NC(=O)[C@H](Cc1ccc(O)cc1)NC(=O)[C@H](CO)NC(=O)[C@@H](Cc1cccnc1)NC(=O)[C@@H](Cc1ccc(Cl)cc1)NC(=O)[C@@H](Cc1ccc2ccccc2c1)NC(C)=O)C(=O)N1CCC[C@H]1C(=O)N[C@H](C)C(N)=O [Ganirelix] (Ac-[d2Nal][dPhe(4-Cl)][d3Pal]SY[d(hArg(Et2))]L[hArg(Et2)]P[dA]-NH2),CRP,[1]; at 4 months,5 mg/L
same,ESR,[1]; at 4 months,19 mm
same,anti-cyclic citrullinated peptide (CCP) antibodies,[1]; at 4 months,14 u/mL
same,rheumatoid factor level,[1]; at 4 months,75 kIU/L
same,Disease activity score (DAS),"[1]; at 4 months, 0.75 mg sc daily (remission)",2.2
same,CRP,[1]; before Ganirelix,23 mg/L
same,Disease activity score (DAS),[1]; before Ganirelix,5.5
same,ESR,[1]; before Ganirelix,28 mm
same,anti-cyclic citrullinated peptide (CCP) antibodies,[1]; before Ganirelix,27 u/mL
same,rheumatoid factor level,[1]; before Ganirelix,113 kIU/L
same,tendonitis of the elbow on ultrasound,[2],decrease
same,partial Mayo score,"[3]; Ganirelix 2 mg daily, by 6 months (clinical remission)",0
same,partial Mayo score,[3]; before Ganirelix,3
